# Test results published in paper PMC8536627, “Hydrolytic stability of anticancer drugs and one metabolite in the aquatic environment” (Environmental Science and Pollution Research International, 2021).
# Where two headings read alike, the source gives them in different places.
# Experiments:
# [1] = physchem; details: for Hydrolytic stability in the preliminary test: pH 4, 7 and 9, 50 °C
# Method: The incubation was performed in the dark, in order to avoid the influence of the photolysis on degradation of the analytes. The water used for the preparation of buffers was autoclaved, all glassware was clean, flushed with methanol, and dried in high temperature. Samples were closed in glass tubes with a sealed cap. The air from above the solution was removed by a nitrogen stream just before capping. In the preliminary test, solutions of single analytes were prepared in each tested pH: 4, 7, and 9, which is required by the OECD guidelines. There was also a blank sample prepared for each pH. Samples in the preliminary test were prepared in two parallel replicates. Moreover, the complete preliminary test was repeated twice. The preliminary test was performed at 50 °C for 5 days. […] In the case of the extended tests, 7 measuring points were provided during the time of the test. Each measuring point was performed in two parallel replicates. […] The test was conducted for 30 days or to 90 % elimination of a compound. Obtained results were used to determine the hydrolysis rate constant (k) using equation: 1 lnCt/C0=kt
# The HPLC-UV/Vis technique was applied to determine the level of hydrolytic degradation of the analytes. In the preliminary test, the control and blank samples were analyzed at the beginning and the end of the test. […] In the extended test, the samples collected in the time intervals were analyzed, and peak areas were compared to those obtained at the beginning of the test. This was used to determine the kinetic of this hydrolysis process by using the Equation 1. In general, each analyte was analyzed by a simple HPLC method with UV/Vis detection. Gemini C18 (Phenomenex, USA), 5 μm, 110 Å, 150 mm × 4.6 mm chromatographic column was applied for each method and three different mobile phases were used (water or 0.1 % HCOOH) mixed with the acetonitrile. The conditions applied during the LC-MS analysis with an ion trap detector for the qualitative analysis of the samples collected after the extended tests at 20 and 70 °C are presented in the Table S2.
# [2] = design: method as in Legay et al. [2014]; details: ref Legay et al. [2014]; cited from earlier work
# [3] = design: method as in Yadav et al. [2012]; details: also under several stress conditions; ref Yadav et al. [2012]; cited from earlier work
# [4] = HPLC water with 4 % DMSO, ref Negreira et al. ([2013a]), cited from earlier work; for Degradation level / loss: 25 °C, 24 h incubation
# [5] = design: method as in Negreira et al. ([2013b]); details: acidification of samples, organic modifier such as 50 % methanol or DMSO, previously tested conditions; ref Negreira et al. ([2013b]); cited from earlier work
# [6] = design: method as in McElnay et al. ([1988]) and Vrignaud et al. ([2015]); details: ref McElnay et al. ([1988]) and Vrignaud et al. ([2015]); cited from earlier work
# [7] = design: method as in Białk-Bielińska et al. [2017]; details: ref Białk-Bielińska et al. [2017]; cited from earlier work
half-life ([1]; aqueous buffer),"Degradation level in the preliminary test ([1]; pH 4, 50 °C, 5 days, dark)",SMILES,half-life ([1]; buffer),Hydrolytic stability in the preliminary test ([1]; 5 days),Stability in aqueous solutions for medication purposes [2],Temperature up to which found stable [3],"Stability in 24 h test ([4]; 4 °C, 24 h)",Long-term stability at 4 °C ([4]; 4 °C),"Stability in 24 h test ([4]; 15 °C, 24 h)",Degradation level / loss [4],Stability after acidification and with organic modifier [5],Time of proved stability [6],Hydrolytic stability under ecotoxicological test conditions [7],Photolytic stability under ecotoxicological test conditions [7],"Concentration decreased to ([4]; 4 °C, after 9 days)","Disappeared from solution ([4]; 15 °C, 24 h)"
,,"O=c1[nH]cc(F)c(=O)[nH]1 [5-FU, 5-fluorouracil]",≥ 365 days,hydrolytically stable,stable,up to 275 °C,stable,stable for 1 month,still stable,11%,,,,,,
≥ 365 days,0%,"CN(Cc1cnc2nc(N)nc(N)c2n1)c1ccc(C(=O)N[C@@H](CCC(=O)O)C(=O)O)cc1 [MTX, methotrexate]",,hydrolytically stable,,,stable,,,65%,stable,at least 24 h,hydrolytically stable,susceptible to photolysis,around 50%,more than 50%
